Like-named read-outs stand apart in the source and are kept apart here.
Columns and labels:
Format in all cases: binding
[1] = molecular target: T1, CIB1 and αIIb interaction (GST-CIB1 : F-αIIb peptide) (Homo sapiens, UniProt Q99828); experiment: FP assay, 384-well format (screen); parameters: 384-well SCREEN Efficacy (%): concentration or dose not given beside the values; details: for 384-well SCREEN Efficacy (%) / 384-well SCREEN Confirm? / IC50: F-αIIb peptide; for 384-well SCREEN Confirm?: YES/NO; for IC50: read-out: 384-well SCREEN IC50
T1 construct: made in house; host or cells: BL-21 plus RIL cells (E. coli)
T1 sequence (Q99828 1-191): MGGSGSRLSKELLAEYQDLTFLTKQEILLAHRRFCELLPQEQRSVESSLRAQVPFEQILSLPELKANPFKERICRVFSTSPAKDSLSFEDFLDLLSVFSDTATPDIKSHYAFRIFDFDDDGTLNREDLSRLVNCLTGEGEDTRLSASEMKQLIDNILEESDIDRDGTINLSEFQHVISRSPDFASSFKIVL

[2] = molecular target: T2, CIB1 and αIIb interaction (CIB1-GST : F-αIIb peptide) (Homo sapiens, UniProt Q99828); experiment: FP assay, 1536-well qHTS format (primary and confirmatory screen); details: for CONFIRMATORY SCREEN Confirm?: YES/NO call
T2 construct: made in house; host or cells: BL-21 plus RIL cells (E. coli)
T2 sequence (Q99828 1-191): T1 sequence (Q99828 1-191)

[3] = molecular target: T3, GST-CIB1 : F-scrambled peptide (Homo sapiens, UniProt Q99828); experiment: FP scrambled-peptide counter screen, 384-well format; details: F-scrambled peptide; for 384-well COUNTERSCREEN Confirm?: *: Curve in opposite direction; for IC50: read-out: 384-well COUNTERSCREEN IC50
T3 construct: made in house; host or cells: BL-21 plus RIL cells (E. coli)
T3 sequence (Q99828 1-191): T1 sequence (Q99828 1-191)

[4] = molecular target: T3, GST-CIB1 : F-scrambled peptide; experiment: FP scrambled-peptide counter screen, 1536-well format; details: for COUNTERSCREEN Confirm?: YES/NO call
[5] = confirmatory screen, qHTS curve class, negative sign = inhibitory curve
[6] = confirmatory screen, negative = inhibition
[7] = confirmatory screen, read-out: CONFIRMATORY SCREEN IC50
[8] = qHTS primary screen hits, Table S2, negative = inhibition
[9] = qHTS primary screen hits, Table S2, negative sign = inhibitory curve, several classes where COUNT > 1
[10] = qHTS primary screen hits, Table S2, read-out: IC50
[11] = scrambled-peptide counterscreen
[12] = scrambled-peptide counterscreen, qHTS curve class
[13] = qHTS primary screen hits, Table S2, negative sign = inhibitory curve
[14] = qHTS FP screen hits, Table S2, negative = inhibition
[15] = qHTS FP screen hits, Table S2, one class per curve where COUNT > 1, negative sign = inhibitory curve
[16] = qHTS FP screen hits, Table S2, read-out: IC50
[17] = scrambled-peptide counterscreen, read-out: COUNTERSCREEN IC50

| SMILES | 384-well SCREEN Efficacy (%) [1] | 384-well SCREEN Confirm? [1] | IC50 [1] | CONFIRMATORY SCREEN Confirm? ([2]; confirmatory screen) | CONFIRMATORY SCREEN Curve Class [2, 5] | CONFIRMATORY SCREEN Efficacy (%) [2, 6] | IC50 [2, 7] | Efficacy (%) [2, 8] | Curve Class [2, 9] | IC50 [2, 10] | 384-well COUNTERSCREEN Efficacy (%) [3] | 384-well COUNTERSCREEN Confirm? [3] | IC50 [3] | COUNTERSCREEN Efficacy (%) [4, 11] | COUNTERSCREEN Confirm? [4, 11] | COUNTERSCREEN Curve Class [4, 12] | Efficacy (%) [2, 14] | Curve Class [2, 15] | IC50 [2, 16] | also measured |
| --- | --- | --- | --- | --- | --- | --- | --- | --- | --- | --- | --- | --- | --- | --- | --- | --- | --- | --- | --- | --- |
| Cc1ccc(S(=O)(=O)Nc2cnccc2C(=O)Nc2nc(-c3cccc(C)c3)cs2)cc1.O=C(O)C(F)(F)F [NCGC00343524-02] | 42% | YES | 10.1 µM | YES | -2.1 | -128% | 20 µM | -40% | -2.2 | 35.5 µM | 60% | YES* | 14.1 µM | 14% | YES | 4 | – | – | – | – |
| Cl.NC(CO)(CO)CCc1ccc(Sc2cccc(OCc3ccccc3)c2)cc1Cl [NCGC00250388-02] | 57% | YES | 31.6 µM | YES | -2.4 | -80% | 50.1 µM | -71% | -2.2 | 79.4 µM | 17% | YES | > 120 µM | -28% | YES | 4 | – | – | – | – |
| CCCCCc1c2c(cc(O)c1C(=O)O)OC(=O)c1c(cc(OC)cc1C(=O)CCCC)O2.O=C(O)C(F)(F)F [NCGC00095570-05] | 38% | YES | 8.9 µM | YES | -1.2 | -60% | 11.2 µM | -33% | -1.4 | 12.6 µM | 58% | YES | 50.1 µM | -14% | YES | 4 | – | – | – | – |
| Cc1csc(CNc2ncnc3ccc(-c4ccc(CO)o4)cc23)n1.O=C(O)C(F)(F)F [NCGC00229623-01] | 70% | YES | 35.5 µM | YES | -3 | -83% | – | -60% | – | – | 39% | – | 25.1 µM | -25% | YES | 4 | – | – | – | Curve Class [2, 13]: -2.2 |
| Brc1c(Br)c(Br)c2[nH]nnc2c1Br [NCGC00092352-04, 4,5,6,7-tetrabromobenzotriazole, reference compound] | 40% | YES | 4.7 µM | YES | -1.2 | -43% | 2.8 µM | – | – | – | 35% | YES | > 120 µM | 79% | YES | 3 | -49% | -1.2 | 14.1 µM | IC50 ([2]; 1536-well qHTS of 14,782 compounds, read-out: intraplate control IC50): ~10.7 µM; IC50 ([2]; 1536-well, LOPAC1280 pilot screen, 0.85 μM GST-CIB1, 100 nM F-αIIb, RT 15 minutes): double-digit micromolar inhibitor; IC50 [4, 17]: 79.4 µM |
| Cc1cc2c(C(C)C)c(O)c(O)c(C=O)c2c(O)c1-c1c(C)cc2c(C(C)C)c(O)c(O)c(C=O)c2c1O [NCGC00261532-01] | 90% | YES | 2.7 µM | – | – | – | – | – | – | – | 60% | YES | 33 µM | – | – | – | – | – | – | Efficacy (%) (confirmatory screen) ([2]; confirmatory screen): -70%; Confirm? (confirmatory screen) ([2]; confirmatory screen, YES/NO): YES; Curve Class (confirmatory screen) [2, 5]: -1.4; IC50 ([2]; confirmatory screen, read-out: IC50 [μM] (confirmatory screen)): 2.8 µM; Efficacy (%) (counterscreen) ([4]; counterscreen): -63%; Curve Class (counterscreen) ([4]; counterscreen, qHTS curve class, negative sign = inhibitory curve): -1.2; IC50 ([4]; counterscreen, read-out: IC50 [μM] (counterscreen)): 7.1 µM |
| CC[S+]([O-])c1nc(-c2cccc(OCc3ccccc3)c2)cc(C(F)(F)F)n1 (centres unmarked) [NCGC00379201-03] | 70% | YES | 0.32 µM | YES | -1.2 | -63% | 0.4 µM | – | – | – | 30% | YES* | > 120 µM | 21% | YES | 4 | -39% | -1.2 | 2.2 µM | – |
| CCOC(=O)c1nnc(NS(=O)(=O)c2ccc(NC(=O)Cc3ccc(Cl)c(Cl)c3)cc2)s1.O=C(O)C(F)(F)F [NCGC00248354-01] | 31% | YES | 28.2 µM | YES | -1.2 | -47% | 15.8 µM | – | – | – | 20% | YES | > 120 µM | 66% | YES | – | – | – | – | IC50 [4, 17]: 44.7 µM |
| Nc1c(Cc2ccc(S(N)(=O)=O)cc2)c(-c2cccc(-c3ccccc3)c2)nn1-c1nc(C(=O)O)cs1.O=C(O)C(F)(F)F [NCGC00356752-02] | 49% | YES | 14.1 µM | YES | -2.2 | -78% | 39.8 µM | – | – | – | 34% | Inconclusive | 1.6 µM | 0% | YES | 4 | -54% | -2.2 | 28.2 µM | Confirm and Selective? ([1]; selective toward αIIb: negative curve class and/or IC50 ratio of >3-fold and/or >2-fold efficacy vs scrambled peptide): Inconclusive |
| COC(=O)C12C(=O)C(C)(O)C(=O)C1(C)C(C)=CC1C34CCC(OC3=O)C(C)(CO)C4CCC12C (centres unmarked) [NCGC00380147-01] | 80% | YES | 32.8 µM | YES | -2.2 | -42% | 17.8 µM | – | – | – | -50% | – | 26.4 µM | -27% | YES | 4 | -32% | -2.2 | 28.2 µM | – |
| CSC(Cc1ccc(Cl)cc1)C(=O)Nc1ccc(Cl)cc1C(=O)O.O=C(O)C(F)(F)F (centres unmarked) [NCGC00189231-01] | 31% | YES | 120 µM | YES | -2.4 | -50% | 44.7 µM | -23% | -2.4 | 22.4 µM | 29% | YES | > 120 µM | 0% | YES | 4 | – | – | – | – |
| O=C(Nc1nc(-c2ccccc2)cs1)c1ccncc1NS(=O)(=O)c1ccc2ccccc2c1.O=C(O)C(F)(F)F [NCGC00345031-01] | 47% | YES | – | YES | -1.4 | – | 20 µM | -53% | – | 39.8 µM | 81% | YES* | 28.2 µM | – | YES | 3 | – | – | – | CONFIRMATORY SCREEN Efficacy (%) [2]: -84%; Curve Class [2, 13]: -2.2; COUNTERSCREEN Efficacy (%) [4]: 0% |
| CCc1oc2ccccc2c1C(=O)c1cc(I)c(O)c(I)c1 [NCGC00160408-03] | 31% | – | > 120 µM | YES | -1.2 | -75% | 11.2 µM | – | – | – | 173% | – | 10 µM | 20% | YES | 1.4 | -52% | -2.2 | 39.8 µM | IC50 [4, 17]: 11.2 µM |
